Read-outs that look alike come from different tables or passages of the source.
How the values were obtained:
Test in all cases: biochemical
Design in all cases: In vitro kinase panel profiling, per cent remaining kinase activity at 10 uM
[1] = target: CDK7/cyclinH/MAT1(h) (Homo sapiens, UniProt P50613); conditions: atp_concentration=90, read-out: % of control remaining
Source text: (§1) We derisk potential for off-target activity by profiling the compound in a CEREP panel, a standard secondary pharmacology assessment, as well as a kinase panel to derisk a potential hinge-binding motif in our leads, and a PARP panel to derisk activity against human […]. Reassuringly, the compounds are selective, with the only off-targets being moderate human CHRM2 and KOR receptors activity associated with ASAP-0011198.

[2] = target: T1, IKKα(h) (Homo sapiens, UniProt O15111); conditions: atp_concentration=10, read-out: % of control remaining
T1 construct: gene CHUK
T1 sequence (O15111 1-745): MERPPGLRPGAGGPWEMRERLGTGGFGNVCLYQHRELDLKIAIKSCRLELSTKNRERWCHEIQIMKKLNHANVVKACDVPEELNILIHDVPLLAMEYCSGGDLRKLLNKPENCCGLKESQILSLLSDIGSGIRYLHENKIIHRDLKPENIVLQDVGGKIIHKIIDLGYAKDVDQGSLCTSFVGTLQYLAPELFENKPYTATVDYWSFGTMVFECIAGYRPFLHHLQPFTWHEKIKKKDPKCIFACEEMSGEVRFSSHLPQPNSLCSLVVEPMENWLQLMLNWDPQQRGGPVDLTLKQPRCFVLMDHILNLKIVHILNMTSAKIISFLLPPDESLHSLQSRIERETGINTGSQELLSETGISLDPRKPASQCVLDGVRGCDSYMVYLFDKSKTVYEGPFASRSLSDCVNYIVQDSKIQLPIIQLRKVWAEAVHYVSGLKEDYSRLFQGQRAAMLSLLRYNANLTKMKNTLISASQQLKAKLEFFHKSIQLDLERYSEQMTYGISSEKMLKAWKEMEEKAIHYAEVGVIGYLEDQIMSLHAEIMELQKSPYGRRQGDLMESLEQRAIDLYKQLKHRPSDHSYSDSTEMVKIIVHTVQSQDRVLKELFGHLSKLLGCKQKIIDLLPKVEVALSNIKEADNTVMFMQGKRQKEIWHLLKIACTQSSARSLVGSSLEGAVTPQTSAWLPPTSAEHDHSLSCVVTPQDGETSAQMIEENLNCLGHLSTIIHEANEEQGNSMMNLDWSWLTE
Source text: as §1

[3] = target: T2, Mnk2(h) (Homo sapiens, UniProt Q9HBH9); conditions: atp_concentration=120, read-out: % of control remaining
T2 construct: gene MKNK2
Source text: as §1

[4] = target: Plk3(h) (Homo sapiens, UniProt Q9H4B4); conditions: atp_concentration=70, read-out: % of control remaining
Source text: as §1

[5] = target: T3, MSK2(h) (Homo sapiens, UniProt O75676); conditions: atp_concentration=45, read-out: % of control remaining
T3 construct: gene RPS6KA4
Source text: as §1

[6] = target: T4, c-RAF(h) (Homo sapiens, UniProt P04049); conditions: atp_concentration=120, read-out: % of control remaining
T4 construct: gene RAF1
Source text: as §1

[7] = target: T5, EphB4(h) (Homo sapiens, UniProt P54760); conditions: atp_concentration=10, read-out: % of control remaining
T5 sequence (P54760 1-987): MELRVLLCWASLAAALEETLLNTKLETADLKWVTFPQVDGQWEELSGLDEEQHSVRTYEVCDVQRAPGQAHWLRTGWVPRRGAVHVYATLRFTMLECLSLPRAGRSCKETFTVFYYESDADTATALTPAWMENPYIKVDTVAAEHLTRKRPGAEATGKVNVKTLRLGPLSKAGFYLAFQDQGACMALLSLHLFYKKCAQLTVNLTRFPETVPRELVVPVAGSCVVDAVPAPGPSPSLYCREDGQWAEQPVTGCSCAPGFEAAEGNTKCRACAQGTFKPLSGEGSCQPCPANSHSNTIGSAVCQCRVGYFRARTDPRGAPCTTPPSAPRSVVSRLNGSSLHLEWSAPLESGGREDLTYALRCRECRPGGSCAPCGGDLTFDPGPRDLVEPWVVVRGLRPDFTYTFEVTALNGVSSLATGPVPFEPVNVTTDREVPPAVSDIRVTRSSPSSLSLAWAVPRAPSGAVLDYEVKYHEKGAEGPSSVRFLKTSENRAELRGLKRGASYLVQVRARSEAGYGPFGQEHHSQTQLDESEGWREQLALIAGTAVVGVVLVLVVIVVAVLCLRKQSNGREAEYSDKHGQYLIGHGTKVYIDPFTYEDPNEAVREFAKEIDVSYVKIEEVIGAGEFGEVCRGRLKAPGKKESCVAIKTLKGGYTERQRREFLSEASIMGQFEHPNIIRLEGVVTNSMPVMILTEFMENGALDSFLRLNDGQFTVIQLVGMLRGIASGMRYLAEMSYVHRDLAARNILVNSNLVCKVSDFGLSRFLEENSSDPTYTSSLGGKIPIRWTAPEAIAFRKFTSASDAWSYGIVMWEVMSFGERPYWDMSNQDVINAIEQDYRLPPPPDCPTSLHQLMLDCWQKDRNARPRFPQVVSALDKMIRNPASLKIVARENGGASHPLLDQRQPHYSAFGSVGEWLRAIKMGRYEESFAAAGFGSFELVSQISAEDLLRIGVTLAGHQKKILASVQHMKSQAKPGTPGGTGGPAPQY
Source text: as §1

[8] = target: T6, AMPKα1(h) (Homo sapiens, UniProt Q13131); conditions: atp_concentration=45, read-out: % of control remaining
T6 construct: gene PRKAA1
Source text: as §1

T3 sequence (O75676 whole entry): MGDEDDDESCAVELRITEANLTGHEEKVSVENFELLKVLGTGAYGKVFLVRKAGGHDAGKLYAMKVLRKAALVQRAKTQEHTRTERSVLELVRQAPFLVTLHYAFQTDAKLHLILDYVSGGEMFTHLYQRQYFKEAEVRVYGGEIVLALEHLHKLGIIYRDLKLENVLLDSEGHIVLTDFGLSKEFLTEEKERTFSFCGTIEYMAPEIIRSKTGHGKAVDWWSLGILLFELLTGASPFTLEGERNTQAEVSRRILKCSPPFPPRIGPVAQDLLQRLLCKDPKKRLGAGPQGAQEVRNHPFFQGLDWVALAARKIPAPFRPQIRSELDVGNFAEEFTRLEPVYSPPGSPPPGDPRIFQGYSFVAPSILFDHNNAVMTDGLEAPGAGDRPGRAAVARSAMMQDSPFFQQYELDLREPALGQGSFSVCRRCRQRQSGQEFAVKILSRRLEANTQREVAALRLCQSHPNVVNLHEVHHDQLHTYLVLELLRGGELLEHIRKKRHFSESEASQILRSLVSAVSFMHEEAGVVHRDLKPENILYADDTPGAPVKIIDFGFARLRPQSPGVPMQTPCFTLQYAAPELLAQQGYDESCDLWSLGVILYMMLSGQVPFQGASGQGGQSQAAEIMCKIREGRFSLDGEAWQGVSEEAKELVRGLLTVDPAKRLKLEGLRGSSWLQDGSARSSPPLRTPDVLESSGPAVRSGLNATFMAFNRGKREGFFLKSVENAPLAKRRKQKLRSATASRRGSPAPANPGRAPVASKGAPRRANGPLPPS
T4 sequence (P04049 whole entry): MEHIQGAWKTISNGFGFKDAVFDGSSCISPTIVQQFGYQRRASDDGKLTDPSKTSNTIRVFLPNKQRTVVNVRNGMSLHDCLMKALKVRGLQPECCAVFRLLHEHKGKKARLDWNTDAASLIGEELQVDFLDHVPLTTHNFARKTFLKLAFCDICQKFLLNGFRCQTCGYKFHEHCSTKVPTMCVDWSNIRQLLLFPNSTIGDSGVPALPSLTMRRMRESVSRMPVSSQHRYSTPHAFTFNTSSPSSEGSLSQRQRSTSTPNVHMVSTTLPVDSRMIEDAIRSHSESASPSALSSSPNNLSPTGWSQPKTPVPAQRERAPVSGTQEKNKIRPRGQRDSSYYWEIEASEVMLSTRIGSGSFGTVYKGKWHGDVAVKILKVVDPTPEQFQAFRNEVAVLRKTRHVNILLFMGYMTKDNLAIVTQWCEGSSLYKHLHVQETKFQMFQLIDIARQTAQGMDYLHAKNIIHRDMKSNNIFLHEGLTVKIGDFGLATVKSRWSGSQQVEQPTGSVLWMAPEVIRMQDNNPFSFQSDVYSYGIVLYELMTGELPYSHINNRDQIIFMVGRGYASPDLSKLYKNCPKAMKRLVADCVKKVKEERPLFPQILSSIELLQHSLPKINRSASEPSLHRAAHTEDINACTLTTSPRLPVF
CDK7/cyclinH/MAT1(h), sequence (P50613 whole entry): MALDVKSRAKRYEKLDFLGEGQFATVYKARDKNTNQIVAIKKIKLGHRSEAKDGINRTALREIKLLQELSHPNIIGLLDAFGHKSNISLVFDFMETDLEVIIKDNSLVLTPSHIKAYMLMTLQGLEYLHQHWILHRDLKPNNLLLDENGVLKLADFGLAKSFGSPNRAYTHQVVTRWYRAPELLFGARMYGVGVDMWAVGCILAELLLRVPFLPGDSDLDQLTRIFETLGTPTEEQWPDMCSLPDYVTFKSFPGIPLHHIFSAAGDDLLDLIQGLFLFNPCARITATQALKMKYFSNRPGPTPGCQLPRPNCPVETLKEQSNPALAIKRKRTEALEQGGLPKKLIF
CDK7/cyclinH/MAT1(h), sequence (P51946 whole entry partner): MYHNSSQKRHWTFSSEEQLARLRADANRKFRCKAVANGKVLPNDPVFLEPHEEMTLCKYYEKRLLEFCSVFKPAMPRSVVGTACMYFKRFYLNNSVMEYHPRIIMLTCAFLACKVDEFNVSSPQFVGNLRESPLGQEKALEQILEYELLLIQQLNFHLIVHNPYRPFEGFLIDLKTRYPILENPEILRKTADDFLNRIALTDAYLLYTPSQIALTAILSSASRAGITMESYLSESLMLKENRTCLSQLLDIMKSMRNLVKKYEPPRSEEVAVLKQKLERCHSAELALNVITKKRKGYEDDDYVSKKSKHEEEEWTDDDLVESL
CDK7/cyclinH/MAT1(h), sequence (P51948 whole entry partner): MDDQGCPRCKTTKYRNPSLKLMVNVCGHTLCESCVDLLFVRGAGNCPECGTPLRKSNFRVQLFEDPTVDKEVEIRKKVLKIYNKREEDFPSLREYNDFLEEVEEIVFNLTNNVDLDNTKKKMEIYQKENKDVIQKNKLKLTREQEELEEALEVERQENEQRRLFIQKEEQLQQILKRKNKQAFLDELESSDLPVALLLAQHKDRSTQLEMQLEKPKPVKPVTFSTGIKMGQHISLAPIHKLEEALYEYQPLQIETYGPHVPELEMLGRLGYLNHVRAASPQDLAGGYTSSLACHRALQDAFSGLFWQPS
T2 sequence (Q9HBH9 whole entry): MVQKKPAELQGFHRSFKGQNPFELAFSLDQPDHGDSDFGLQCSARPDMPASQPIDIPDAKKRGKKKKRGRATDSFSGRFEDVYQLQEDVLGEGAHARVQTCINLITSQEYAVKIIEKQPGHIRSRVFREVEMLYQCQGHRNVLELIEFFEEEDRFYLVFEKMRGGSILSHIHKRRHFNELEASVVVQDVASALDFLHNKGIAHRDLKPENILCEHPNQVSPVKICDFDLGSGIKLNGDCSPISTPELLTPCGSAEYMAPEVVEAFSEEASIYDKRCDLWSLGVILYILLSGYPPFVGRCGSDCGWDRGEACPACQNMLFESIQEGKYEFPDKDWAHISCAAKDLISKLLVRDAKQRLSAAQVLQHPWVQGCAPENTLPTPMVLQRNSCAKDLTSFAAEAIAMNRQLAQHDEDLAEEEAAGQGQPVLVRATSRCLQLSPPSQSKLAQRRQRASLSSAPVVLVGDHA
T6 sequence (Q13131 whole entry): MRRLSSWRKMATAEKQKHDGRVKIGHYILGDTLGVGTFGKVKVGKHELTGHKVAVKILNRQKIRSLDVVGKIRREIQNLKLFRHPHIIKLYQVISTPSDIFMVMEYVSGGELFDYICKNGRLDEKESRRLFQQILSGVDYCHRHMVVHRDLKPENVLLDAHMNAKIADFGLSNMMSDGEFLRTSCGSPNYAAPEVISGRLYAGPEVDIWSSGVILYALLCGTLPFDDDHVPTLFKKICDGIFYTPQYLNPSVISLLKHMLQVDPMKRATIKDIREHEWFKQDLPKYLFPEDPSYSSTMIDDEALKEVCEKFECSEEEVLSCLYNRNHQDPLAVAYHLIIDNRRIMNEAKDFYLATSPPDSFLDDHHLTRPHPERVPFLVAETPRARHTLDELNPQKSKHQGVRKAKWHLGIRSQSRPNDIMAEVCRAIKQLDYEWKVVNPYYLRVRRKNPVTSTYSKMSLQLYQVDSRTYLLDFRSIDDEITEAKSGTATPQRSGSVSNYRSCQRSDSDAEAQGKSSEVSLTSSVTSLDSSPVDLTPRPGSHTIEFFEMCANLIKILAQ
T6 sequence (P54619 whole entry partner): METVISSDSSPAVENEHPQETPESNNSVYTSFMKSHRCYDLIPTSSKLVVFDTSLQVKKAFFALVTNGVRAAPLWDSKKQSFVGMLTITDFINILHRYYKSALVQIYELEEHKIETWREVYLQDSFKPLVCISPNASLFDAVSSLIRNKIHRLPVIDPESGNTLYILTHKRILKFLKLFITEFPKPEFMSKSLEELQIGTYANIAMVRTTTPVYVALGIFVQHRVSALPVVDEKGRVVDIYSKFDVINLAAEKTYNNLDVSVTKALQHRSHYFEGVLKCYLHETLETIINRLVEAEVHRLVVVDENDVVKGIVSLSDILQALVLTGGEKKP
T6 sequence (Q9Y478 whole entry partner): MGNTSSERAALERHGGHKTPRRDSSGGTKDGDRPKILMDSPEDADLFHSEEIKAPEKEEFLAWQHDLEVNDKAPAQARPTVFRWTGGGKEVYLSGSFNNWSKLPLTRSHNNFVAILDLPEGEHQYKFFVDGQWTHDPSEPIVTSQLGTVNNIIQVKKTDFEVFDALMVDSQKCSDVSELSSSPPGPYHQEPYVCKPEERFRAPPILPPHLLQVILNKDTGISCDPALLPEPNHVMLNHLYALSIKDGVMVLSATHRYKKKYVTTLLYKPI
Plk3(h), sequence (Q9H4B4 whole entry): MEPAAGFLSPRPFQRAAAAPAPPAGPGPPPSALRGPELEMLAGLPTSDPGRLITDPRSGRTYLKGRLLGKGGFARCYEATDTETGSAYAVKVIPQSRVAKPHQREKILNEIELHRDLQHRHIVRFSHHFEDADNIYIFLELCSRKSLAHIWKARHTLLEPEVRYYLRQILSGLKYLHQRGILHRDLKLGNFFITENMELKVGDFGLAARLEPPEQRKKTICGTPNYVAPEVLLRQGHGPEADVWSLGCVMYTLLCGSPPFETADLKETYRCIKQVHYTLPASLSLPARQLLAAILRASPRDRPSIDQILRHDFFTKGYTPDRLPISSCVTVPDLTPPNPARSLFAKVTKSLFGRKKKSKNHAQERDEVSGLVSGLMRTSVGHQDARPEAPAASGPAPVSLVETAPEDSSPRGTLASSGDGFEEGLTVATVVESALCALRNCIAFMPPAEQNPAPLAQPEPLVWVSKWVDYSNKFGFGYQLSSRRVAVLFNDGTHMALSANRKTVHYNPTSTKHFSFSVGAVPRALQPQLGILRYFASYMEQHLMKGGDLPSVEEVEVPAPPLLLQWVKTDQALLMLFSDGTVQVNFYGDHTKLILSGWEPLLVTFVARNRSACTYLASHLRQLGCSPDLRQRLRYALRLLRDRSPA

## CC(C)C(Nc1ncnc2[nH]ccc12)c1ccc2c(c1)S(=O)(=O)CCC2 (stereo not shown) [ASAP-0008327]
[1]; batch_name=ASAP-0008327-001
  remaining activity at 10 µM: 85%
[2]; batch_name=ASAP-0008327-001
  remaining activity at 10 µM: 91%
[3]; batch_name=ASAP-0008327-001
  remaining activity at 10 µM: 89%
[4]; batch_name=ASAP-0008327-001
  remaining activity at 10 µM: 103%
[5]; batch_name=ASAP-0008327-001
  remaining activity at 10 µM: 99%
[6]; batch_name=ASAP-0008327-001
  remaining activity at 10 µM: 97%
[7]; batch_name=ASAP-0008327-001
  remaining activity at 10 µM: 91%
[8]; batch_name=ASAP-0008327-001
  remaining activity at 10 µM: 94%

## COc1ccc([C@@H](Cc2nnn[nH]2)NC(=O)c2ncnc3[nH]ccc23)cc1 [ASAP-0008340]
[1]; batch_name=ASAP-0008340-001
  remaining activity at 10 µM: 91%
[2]; batch_name=ASAP-0008340-001
  remaining activity at 10 µM: 99%
[3]; batch_name=ASAP-0008340-001
  remaining activity at 10 µM: 84%
[4]; batch_name=ASAP-0008340-001
  remaining activity at 10 µM: 102%
[5]; batch_name=ASAP-0008340-001
  remaining activity at 10 µM: 92%
[6]; batch_name=ASAP-0008340-001
  remaining activity at 10 µM: 90%
[7]; batch_name=ASAP-0008340-001
  remaining activity at 10 µM: 88%
[8]; batch_name=ASAP-0008340-001
  remaining activity at 10 µM: 101%

## CC(C)[C@@H](Nc1ncnc2[nH]c(-c3cnn(C)c3C#N)cc12)c1ccc2c(n1)OCCO2 [ASAP-0008418]
[1]; batch_name=ASAP-0008418-001
  remaining activity at 10 µM: 101%
[2]; batch_name=ASAP-0008418-001
  remaining activity at 10 µM: 111%
[3]; batch_name=ASAP-0008418-001
  remaining activity at 10 µM: 77%
[4]; batch_name=ASAP-0008418-001
  remaining activity at 10 µM: 90%
[5]; batch_name=ASAP-0008418-001
  remaining activity at 10 µM: 103%
[6]; batch_name=ASAP-0008418-001
  remaining activity at 10 µM: 81%
[7]; batch_name=ASAP-0008418-001
  remaining activity at 10 µM: 75%
[8]; batch_name=ASAP-0008418-001
  remaining activity at 10 µM: 116%

## CC(C)[C@H](Nc1ncnc2[nH]ccc12)c1ccc2c(c1)S(=O)(=O)CCC2 [ASAP-0008674]
[1]; batch_name=ASAP-0008674-002
  remaining activity at 10 µM: 89%
[2]; batch_name=ASAP-0008674-002
  remaining activity at 10 µM: 92%
[3]; batch_name=ASAP-0008674-002
  remaining activity at 10 µM: 98%
[4]; batch_name=ASAP-0008674-002
  remaining activity at 10 µM: 112%
[5]; batch_name=ASAP-0008674-002
  remaining activity at 10 µM: 92%
[6]; batch_name=ASAP-0008674-002
  remaining activity at 10 µM: 107%
[7]; batch_name=ASAP-0008674-002
  remaining activity at 10 µM: 86%
[8]; batch_name=ASAP-0008674-002
  remaining activity at 10 µM: 104%

## CC(C)[C@H](Nc1ncnc2[nH]c(-c3cnn(C)c3C#N)cc12)c1ccc2c(n1)OCCO2 [ASAP-0010715]
[1]; batch_name=ASAP-0010715-002
  remaining activity at 10 µM: 98%
[2]; batch_name=ASAP-0010715-002
  remaining activity at 10 µM: 120%
[3]; batch_name=ASAP-0010715-002
  remaining activity at 10 µM: 95%
[4]; batch_name=ASAP-0010715-002
  remaining activity at 10 µM: 102%
[5]; batch_name=ASAP-0010715-002
  remaining activity at 10 µM: 114%
[6]; batch_name=ASAP-0010715-002
  remaining activity at 10 µM: 97%
[7]; batch_name=ASAP-0010715-002
  remaining activity at 10 µM: 89%
[8]; batch_name=ASAP-0010715-002
  remaining activity at 10 µM: 111%

## CC(C)[C@@H](Nc1ncnc2[nH]c(-c3cnn(C)c3C#N)cc12)c1ccc2c(n1)OCCO2 [ASAP-0010716]
[1]; batch_name=ASAP-0010716-002
  remaining activity at 10 µM: 102%
[2]; batch_name=ASAP-0010716-002
  remaining activity at 10 µM: 104%
[3]; batch_name=ASAP-0010716-002
  remaining activity at 10 µM: 83%
[4]; batch_name=ASAP-0010716-002
  remaining activity at 10 µM: 89%
[5]; batch_name=ASAP-0010716-002
  remaining activity at 10 µM: 122%
[6]; batch_name=ASAP-0010716-002
  remaining activity at 10 µM: 90%
[7]; batch_name=ASAP-0010716-002
  remaining activity at 10 µM: 91%
[8]; batch_name=ASAP-0010716-002
  remaining activity at 10 µM: 99%

## CNCc1cc(-c2cc3c(N[C@@H](c4ccc5c(c4)S(=O)(=O)CCC5)C(C)C)ncnc3[nH]2)co1 [ASAP-0011176]
[1]; batch_name=ASAP-0011176-002
  remaining activity at 10 µM: 100%
[2]; batch_name=ASAP-0011176-002
  remaining activity at 10 µM: 79%
[3]; batch_name=ASAP-0011176-002
  remaining activity at 10 µM: 94%
[4]; batch_name=ASAP-0011176-002
  remaining activity at 10 µM: 124%
[5]; batch_name=ASAP-0011176-002
  remaining activity at 10 µM: 91%
[6]; batch_name=ASAP-0011176-002
  remaining activity at 10 µM: 100%
[7]; batch_name=ASAP-0011176-002
  remaining activity at 10 µM: 92%
[8]; batch_name=ASAP-0011176-002
  remaining activity at 10 µM: 86%

## CC(C)C(Nc1ncnc2[nH]c(C(=O)NC3CCN(C)C3)cc12)c1ccc2c(c1)S(=O)(=O)CCC2 (stereo not shown) [ASAP-0011198]
[1]; batch_name=ASAP-0011198-002
  remaining activity at 10 µM: 101%
[2]; batch_name=ASAP-0011198-002
  remaining activity at 10 µM: 82%
[3]; batch_name=ASAP-0011198-002
  remaining activity at 10 µM: 99%
[4]; batch_name=ASAP-0011198-002
  remaining activity at 10 µM: 98%
[5]; batch_name=ASAP-0011198-002
  remaining activity at 10 µM: 93%
[6]; batch_name=ASAP-0011198-002
  remaining activity at 10 µM: 105%
[7]; batch_name=ASAP-0011198-002
  remaining activity at 10 µM: 86%
[8]; batch_name=ASAP-0011198-002
  remaining activity at 10 µM: 107%

— article doi:10.1101/2024.08.19.608619, “Discovery of potent SARS-CoV-2 nsp3 macrodomain inhibitors uncovers lack of translation to cellular antiviral response” (bioRxiv, 2024)
